Measurements published in patent US11492385B2, “Long-acting co-agonists of the glucagon and GLP-1 receptors” (Merck Sharp & Dohme Corp., priority 2015, dated 2022).
Starred links: 1 amine or outer side, 2 acyl side, 3 side chain; linkers in the order of their positions; H or OH if unused. Non-standard residues stand in square brackets, D forms with d. Residues, ends and D or L forms follow the SMILES beside them. Groups on a side chain read outwards from the residue. *: point of attachment. Phe(4-CH2NH2) = NCc1ccc(C[C@H](N)C(=O)O)cc1; C19 diacid = O=C(O)CCCCCCCCCCCCCCCCCC(=O)*; C18 diacid = O=C(O)CCCCCCCCCCCCCCCCC(=O)*; C16 diacid = O=C(O)CCCCCCCCCCCCCCC(=O)*; γGlu = O=C(O)[C@H](CCC(=O)[*:2])N[*:1]; X1 = O=C([C@H]1CCC[C@@H]1N[*:1])[*:2]; Met(O2) = CS(=O)(=O)CC[C@H](N)C(=O)O; αMeD = C[C@](N)(CC(=O)O)C(=O)O; AEEA = NCCOCCOCC(=O)O; Aib = CC(C)(N)C(=O)O

Key:
[1] = biological target: T1, human GLP1R (Homo sapiens, UniProt P43220); experiment: cAMP activity assay, cells expressing human GLP1R; assay type: cell-based; conditions: cAMP production, assay buffer with or without 20% human serum (not stated which)
T1 construct: expressed in transfected cells; kept under Blasticidin and Hygromycin selection
Procedure: (§1) Activity of the peptides at the Glucagon receptor (GCGR) and GLP-1 receptor (GLP1R) was measured in a cAMP activity assay. Peptides were dissolved in 100% DMSO and serially diluted to generate 10 point titrations. The peptide solutions were then transferred into 384-well assay plates (150 nL/well). […] Production of cAMP was determined using […] kits (DiscoverX) following manufacturer protocol. The plates were incubated for overnight at room temperature in the dark. Luminescence was measured using an EnVision Multilabel plate reader (Perkin Elmer). Native GLP-1 and Glucagon (Bachem) are used as control peptides. EC50 values were calculated using uses a 4 parameter logistic fit based on the Levenberg-Marquardt algorithm.

[2] = biological target: T2, human GCGR (Homo sapiens, UniProt P47871); experiment: cAMP activity assay, cells expressing human GCGR; assay type: cell-based; conditions: for EC50: cAMP production, cells expressing human GCGR, assay buffer with or without 20% human serum (not stated which), read-out: GCGR EC50 human; for hGCGR/hGLP1R (hTone): ratio of human GCGR EC50 to human GLP1R EC50
T2 construct: expressed in transfected cells; kept under Blasticidin and Hygromycin selection
Procedure: as §1

T2 sequence (P47871 26-477): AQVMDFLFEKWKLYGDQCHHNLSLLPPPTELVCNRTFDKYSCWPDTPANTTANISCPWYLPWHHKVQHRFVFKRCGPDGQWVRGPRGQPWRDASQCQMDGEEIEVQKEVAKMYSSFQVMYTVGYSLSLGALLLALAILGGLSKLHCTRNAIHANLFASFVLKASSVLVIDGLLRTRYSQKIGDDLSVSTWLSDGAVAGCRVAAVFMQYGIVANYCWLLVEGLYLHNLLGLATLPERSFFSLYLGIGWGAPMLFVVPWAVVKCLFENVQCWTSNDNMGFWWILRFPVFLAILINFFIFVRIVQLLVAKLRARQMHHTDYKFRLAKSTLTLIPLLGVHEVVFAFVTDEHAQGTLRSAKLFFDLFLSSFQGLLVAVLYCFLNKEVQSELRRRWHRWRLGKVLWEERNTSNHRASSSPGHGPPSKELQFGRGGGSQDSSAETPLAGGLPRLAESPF
T1 sequence (P43220 24-463): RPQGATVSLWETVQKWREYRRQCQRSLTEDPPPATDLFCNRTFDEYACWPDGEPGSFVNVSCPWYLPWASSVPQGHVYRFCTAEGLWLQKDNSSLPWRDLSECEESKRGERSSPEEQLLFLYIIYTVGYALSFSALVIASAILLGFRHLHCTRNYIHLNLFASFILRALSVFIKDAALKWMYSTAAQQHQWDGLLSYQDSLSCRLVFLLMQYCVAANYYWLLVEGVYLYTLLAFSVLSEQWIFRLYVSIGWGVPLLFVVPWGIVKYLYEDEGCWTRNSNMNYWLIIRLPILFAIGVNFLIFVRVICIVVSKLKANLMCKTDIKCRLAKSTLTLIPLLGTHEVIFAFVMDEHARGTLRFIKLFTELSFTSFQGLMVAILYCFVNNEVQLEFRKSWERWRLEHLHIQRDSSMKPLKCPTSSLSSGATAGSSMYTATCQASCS

| Structure (SMILES) | EC50 [1] [nM] | EC50 [2] [nM] | hGCGR/hGLP1R (hTone) [2] |
| --- | --- | --- | --- |
| CC(C)C[C@H](NC(=O)[C@H](Cc1ccc(O)cc1)NC(=O)[C@H]1CCC[C@@H]1NC(=O)[C@H](CO)NC(=O)[C@H](Cc1ccc(O)cc1)NC(=O)[C@H](CC(=O)O)NC(=O)[C@H](CO)NC(=O)[C@@H](NC(=O)[C@H](Cc1ccccc1)NC(=O)[C@@H](NC(=O)CNC(=O)[C@H](CCC(N)=O)NC(=O)C(C)(C)NC(=O)[C@@H](N)Cc1c[nH]cn1)[C@@H](C)O)[C@@H](C)O)C(=O)N[C@@H](CC(=O)O)C(=O)NC(C)(C)C(=O)N[C@@H](CCCNC(=N)N)C(=O)N[C@@H](C)C(=O)N[C@@H](C)C(=O)N[C@@H](CCCCNC(=O)COCCOCCNC(=O)COCCOCCNC(=O)CC[C@H](NC(=O)CCCCCCCCCCCCCCC(=O)O)C(=O)O)C(=O)N[C@@H](CC(=O)O)C(=O)N[C@@H](Cc1ccccc1)C(=O)N[C@H](C(=O)N[C@H]1CCC[C@@H]1C(=O)N[C@@H](Cc1c[nH]c2ccccc12)C(=O)N[C@@H](CC(C)C)C(=O)N[C@@H](CCS(C)(=O)=O)C(=O)N[C@@H](CC(=O)O)C(=O)N[C@H](C(N)=O)[C@@H](C)O)C(C)C [compound 36] (H-H[Aib]QGTFTSDYS[X1]YLD[Aib]RAAK([AEEA-AEEA-γGlu-C16 diacid])DFV[X1]WL[Met(O2)]DT-NH2; N-terminus assumed) | 0.36 | 0.23 | 0.65 |
| CC(C)C[C@H](NC(=O)[C@H](Cc1ccc(O)cc1)NC(=O)[C@H](CCCCN)NC(=O)[C@H](CO)NC(=O)[C@H](Cc1ccc(O)cc1)NC(=O)[C@H](CC(=O)O)NC(=O)[C@H](CO)NC(=O)[C@@H](NC(=O)[C@H](Cc1ccccc1)NC(=O)[C@@H](NC(=O)CNC(=O)[C@H](CCC(N)=O)NC(=O)C(C)(C)NC(=O)[C@@H](N)Cc1c[nH]cn1)[C@@H](C)O)[C@@H](C)O)C(=O)N[C@@H](CC(=O)O)C(=O)N[C@@H](C)C(=O)N[C@@H](CCCNC(=N)N)C(=O)N[C@@H](C)C(=O)N[C@@H](C)C(=O)N[C@@H](CCC(N)=O)C(=O)N[C@@H](Cc1ccc(CNC(=O)COCCOCCNC(=O)COCCOCCNC(=O)CC[C@H](NC(=O)CCCCCCCCCCCCCCCCC(=O)O)C(=O)O)cc1)C(=O)N[C@@H](Cc1ccccc1)C(=O)N[C@H](C(=O)N[C@@H](CCC(N)=O)C(=O)N[C@@H](Cc1c[nH]c2ccccc12)C(=O)N[C@@H](CC(C)C)C(=O)N[C@@H](CC(C)C)C(=O)N[C@@](C)(CC(=O)O)C(=O)N[C@H](C(N)=O)[C@@H](C)O)C(C)C [compound 75] (H-H[Aib]QGTFTSDYSKYLDARAAQ[Phe(4-CH2NH2)]([AEEA-AEEA-γGlu-C18 diacid])FVQWLL[αMeD]T-NH2) | 0.42 | 0.36 | 0.9 |
| CC(C)C[C@H](NC(=O)[C@H](Cc1ccc(O)cc1)NC(=O)[C@H](CCCCN)NC(=O)[C@H](CO)NC(=O)[C@H](Cc1ccc(O)cc1)NC(=O)[C@](C)(CC(=O)O)NC(=O)[C@H](CO)NC(=O)[C@@H](NC(=O)[C@H](Cc1ccccc1)NC(=O)[C@@H](NC(=O)CNC(=O)[C@H](CCC(N)=O)NC(=O)C(C)(C)NC(=O)[C@@H](N)Cc1c[nH]cn1)[C@@H](C)O)[C@@H](C)O)C(=O)N[C@@H](CC(=O)O)C(=O)N[C@@H](C)C(=O)N[C@@H](CCCNC(=N)N)C(=O)N[C@@H](C)C(=O)N[C@@H](C)C(=O)N[C@@H](CCCCNC(=O)COCCOCCNC(=O)COCCOCCNC(=O)CC[C@H](NC(=O)CCCCCCCCCCCCCCC(=O)O)C(=O)O)C(=O)N[C@@H](CC(=O)O)C(=O)N[C@@H](Cc1ccccc1)C(=O)N[C@H](C(=O)N[C@@H](CCC(N)=O)C(=O)N[C@@H](Cc1c[nH]c2ccccc12)C(=O)N[C@@H](CC(C)C)C(=O)N[C@@H](CCS(C)(=O)=O)C(=O)N[C@@H](CC(=O)O)C(=O)N[C@H](C(N)=O)[C@@H](C)O)C(C)C [compound 37] (H-H[Aib]QGTFTS[αMeD]YSKYLDARAAK([AEEA-AEEA-γGlu-C16 diacid])DFVQWL[Met(O2)]DT-NH2) | 0.11 | 0.67 | 6.24 |
| CC(C)C[C@H](NC(=O)[C@H](Cc1ccc(O)cc1)NC(=O)[C@H](CCCCN)NC(=O)[C@H](CO)NC(=O)[C@H](Cc1ccc(O)cc1)NC(=O)[C@H](CC(=O)O)NC(=O)[C@H](CO)NC(=O)[C@@H](NC(=O)[C@H](Cc1ccccc1)NC(=O)[C@@H](NC(=O)CNC(=O)[C@H](CCC(N)=O)NC(=O)C(C)(C)NC(=O)[C@@H](N)Cc1c[nH]cn1)[C@@H](C)O)[C@@H](C)O)C(=O)N[C@@H](CC(=O)O)C(=O)N[C@@H](C)C(=O)N[C@@H](CCCNC(=N)N)C(=O)N[C@@H](C)C(=O)N[C@@H](C)C(=O)N[C@@H](CCC(N)=O)C(=O)N[C@@H](CCCCNC(=O)COCCOCCNC(=O)COCCOCCNC(=O)CC[C@H](NC(=O)CCCCCCCCCCCCCCCCC(=O)O)C(=O)O)C(=O)N[C@@H](Cc1ccccc1)C(=O)N[C@H](C(=O)N[C@@H](CCC(N)=O)C(=O)N[C@@H](Cc1c[nH]c2ccccc12)C(=O)N[C@@H](CC(C)C)C(=O)N[C@@H](CCS(C)(=O)=O)C(=O)N[C@@H](CC(=O)O)C(=O)N[C@H](C(N)=O)[C@@H](C)O)C(C)C [compound 30] (H-H[Aib]QGTFTSDYSKYLDARAAQK([AEEA-AEEA-γGlu-C18 diacid])FVQWL[Met(O2)]DT-NH2) | 0.06 | 0.1 | 1.66 |
| CC(C)C[C@H](NC(=O)[C@H](Cc1ccc(O)cc1)NC(=O)[C@H](CCCCN)NC(=O)[C@H](CO)NC(=O)[C@H](Cc1ccc(O)cc1)NC(=O)[C@H](CC(=O)O)NC(=O)[C@H](CO)NC(=O)[C@@H](NC(=O)[C@H](Cc1ccccc1)NC(=O)[C@@H](NC(=O)CNC(=O)[C@H](CCC(N)=O)NC(=O)C(C)(C)NC(=O)[C@@H](N)Cc1c[nH]cn1)[C@@H](C)O)[C@@H](C)O)C(=O)N[C@@H](CC(=O)O)C(=O)N[C@@H](C)C(=O)N[C@@H](CCCNC(=N)N)C(=O)N[C@@H](C)C(=O)N[C@@H](C)C(=O)N[C@@H](CCCCNC(=O)COCCOCCNC(=O)COCCOCCNC(=O)CC[C@H](NC(=O)CCCCCCCCCCCCCCC(=O)O)C(=O)O)C(=O)N[C@@H](CC(=O)O)C(=O)N[C@@H](Cc1ccccc1)C(=O)N[C@H](C(=O)N[C@@H](CCC(N)=O)C(=O)N[C@@H](Cc1c[nH]c2ccccc12)C(=O)N[C@@H](CC(C)C)C(=O)N[C@@H](CC(C)C)C(=O)N[C@@H](CC(=O)O)C(=O)N[C@H](C(N)=O)[C@@H](C)O)C(C)C [compound 17] (H-H[Aib]QGTFTSDYSKYLDARAAK([AEEA-AEEA-γGlu-C16 diacid])DFVQWLLDT-NH2) | 0.1 | 0.14 | 1.44 |
| CC(C)C[C@H](NC(=O)[C@H](Cc1ccc(O)cc1)NC(=O)[C@H](CCCCN)NC(=O)[C@H](CO)NC(=O)[C@H](Cc1ccc(O)cc1)NC(=O)[C@H](CC(=O)O)NC(=O)[C@H](CO)NC(=O)[C@@H](NC(=O)[C@H](Cc1ccccc1)NC(=O)[C@@H](NC(=O)CNC(=O)[C@H](CCC(N)=O)NC(=O)[C@@H](CO)NC(=O)[C@@H](N)Cc1c[nH]cn1)[C@@H](C)O)[C@@H](C)O)C(=O)N[C@@H](CC(=O)O)C(=O)N[C@@H](C)C(=O)N[C@@H](CCCNC(=N)N)C(=O)N[C@@H](C)C(=O)N[C@@H](C)C(=O)N[C@@H](CCC(N)=O)C(=O)N[C@@H](Cc1ccc(CNC(=O)COCCOCCNC(=O)COCCOCCNC(=O)CC[C@H](NC(=O)CCCCCCCCCCCCCCC(=O)O)C(=O)O)cc1)C(=O)N[C@@H](Cc1ccccc1)C(=O)N[C@H](C(=O)N[C@@H](CCC(N)=O)C(=O)N[C@@H](Cc1c[nH]c2ccccc12)C(=O)N[C@@H](CC(C)C)C(=O)N[C@@H](CC(C)C)C(=O)N[C@@H](CC(=O)O)C(=O)N[C@H](C(N)=O)[C@@H](C)O)C(C)C [compound 23] (H-H[dS]QGTFTSDYSKYLDARAAQ[Phe(4-CH2NH2)]([AEEA-AEEA-γGlu-C16 diacid])FVQWLLDT-NH2) | 0.27 | 0.04 | 0.14 |
| CC(C)C[C@H](NC(=O)[C@H](Cc1ccc(O)cc1)NC(=O)[C@H](CCCCN)NC(=O)[C@H](CO)NC(=O)[C@H](Cc1ccc(O)cc1)NC(=O)[C@H](CC(=O)O)NC(=O)[C@H](CO)NC(=O)[C@@H](NC(=O)[C@H](Cc1ccccc1)NC(=O)[C@@H](NC(=O)CNC(=O)[C@H](CCC(N)=O)NC(=O)C(C)(C)NC(=O)[C@@H](N)Cc1c[nH]cn1)[C@@H](C)O)[C@@H](C)O)C(=O)N[C@@H](CC(=O)O)C(=O)N[C@@H](C)C(=O)N[C@@H](CCCNC(=N)N)C(=O)N[C@@H](C)C(=O)N[C@@H](C)C(=O)N[C@@H](CCCCNC(=O)COCCOCCNC(=O)COCCOCCNC(=O)CC[C@H](NC(=O)CCCCCCCCCCCCCCCCCC(=O)O)C(=O)O)C(=O)N[C@@H](CC(=O)O)C(=O)N[C@@H](Cc1ccccc1)C(=O)N[C@H](C(=O)N[C@@H](CCC(N)=O)C(=O)N[C@@H](Cc1c[nH]c2ccccc12)C(=O)N[C@@H](CC(C)C)C(=O)N[C@@H](CCS(C)(=O)=O)C(=O)N[C@@H](CC(=O)O)C(=O)N[C@H](C(N)=O)[C@@H](C)O)C(C)C [compound 45] (H-H[Aib]QGTFTSDYSKYLDARAAK([AEEA-AEEA-γGlu-C19 diacid])DFVQWL[Met(O2)]DT-NH2) | 0.12 | 0.16 | 1.30 |
